Values quoted from earlier work, collected in patent publication US11896953B2, “HLB copolymers” (Sigma-Aldrich Co. LLC, priority 2017, dated 2024).

settings: 20-analyte mix for extended screening (Table 22)

Row | SMILES | Log P
1 | CN1CCCCC1CCN1c2ccccc2Sc2ccc([S+](C)[O-])cc21 (centres unmarked) [Mesoridazine] | 3.90
2 | CN(C)CCC=C1c2ccccc2CCc2ccccc21 [Amitriptyline] | 5.10
3 | O=[N+]([O-])NC1=NCCN1Cc1ccc(Cl)nc1 [Imidacloprid] | 0.57
4 | CCc1nn(CCCN2CCN(c3cccc(Cl)c3)CC2)c(=O)n1CCOc1ccccc1 [Nefazodone] | 4.70
5 | CCCCc1nc(Cl)c(CO)n1Cc1ccc(-c2ccccc2-c2nn[nH]n2)cc1 [Losartan] | 6.10
6 | CN1CCN2c3ccccc3Cc3ccccc3C2C1 (centres unmarked) [Mianserin] | 3.52
7 | CN1[C@H]2CC[C@@H]1[C@@H](C(=O)O)[C@@H](OC(=O)c1ccccc1)C2 [Benzoylecgonine] | 1.71
8 | CNC(=C[N+](=O)[O-])NCCSCc1csc(CN(C)C)n1 [Nizatidine] | 1.10
9 | CN(C)CCN(Cc1cccs1)c1ccccn1 [Methapyrilene] | 2.87
10 | N=C(N)NC(=O)c1nc(Cl)c(N)nc1N [Amiloride] | −0.30
11 | CC[C@H]1OC(=O)[C@H](C)[C@@H](O[C@H]2C[C@@](C)(OC)[C@@H](O)[C@H](C)O2)[C@H](C)[C@@H](O[C@@H]2O[C@H](C)C[C@H](N(C)C)[C@H]2O)[C@](C)(OC)C[C@@H](C)C(=O)[C@H](C)[C@@H](O)[C@]1(C)O [Clarithromycin] | 3.16
12 | Cc1ccnc2c1NC(=O)c1cccnc1N2C1CC1 [Nevirapine] | 2.50
13 | CN1CCN2c3ncccc3Cc3ccccc3C2C1 (centres unmarked) [Mirtazapine] | 2.90

same assay, conditions: analytes of the six analyte preliminary screen (Table 18)

Row | SMILES | Log P
14 | Cc1ccc(C(N)=O)cc1 [p-Toluamide] | 1.2
15 | Oc1ccc2ccc(O)cc2c1 [2,7-dihydroxynaphthalene] | 2.3

same assay, conditions: eight analytes of the 3-step protocol evaluations (Table 25)

Row | SMILES | Log P
16 | CNCCCC1c2ccccc2C=Cc2ccccc21 [Protriptyline] | 4.70

same assay, conditions: hydrophilic monomers

Row | SMILES | log P
17 | C=CC#N [acrylonitrile] | 0.25
